{"source": "patent US20180370912A1", "about": "“COMPOUNDS AND METHODS FOR TREATING DISEASES MEDIATED BY PROTEIN DISULFIDE ISOMERASE” (Beth Israel Deaconess Medical Center, Inc., priority 2017, published 2018)", "assay_type_in_all_cases": "biochemical", "key": {"[1]": {"target": "T1, PDI mutant in which the CGHC motif is mutated to AGHA (Homo sapiens, UniProt P07237, C397A/C400A/C53A/C56A)", "T1 sequence (P07237 18-508 C53A/C56A/C397A/C400A)": "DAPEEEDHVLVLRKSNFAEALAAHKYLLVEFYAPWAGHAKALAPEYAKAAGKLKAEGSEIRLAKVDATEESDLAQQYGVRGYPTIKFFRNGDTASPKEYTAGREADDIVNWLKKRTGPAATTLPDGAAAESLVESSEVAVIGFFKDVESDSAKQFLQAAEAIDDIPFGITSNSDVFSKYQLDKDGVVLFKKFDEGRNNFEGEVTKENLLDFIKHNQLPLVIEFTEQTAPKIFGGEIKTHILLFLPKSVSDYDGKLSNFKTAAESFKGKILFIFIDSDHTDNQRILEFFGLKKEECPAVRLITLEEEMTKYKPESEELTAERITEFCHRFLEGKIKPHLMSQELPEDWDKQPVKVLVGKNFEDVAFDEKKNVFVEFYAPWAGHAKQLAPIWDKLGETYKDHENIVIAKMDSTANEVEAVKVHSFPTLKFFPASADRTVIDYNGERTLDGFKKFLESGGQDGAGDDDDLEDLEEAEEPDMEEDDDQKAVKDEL", "test": "Di-eosin-GSSG disulfide reductase assay, catalytically inactive mutant", "conditions": "FIG. 1c", "experimental": "(§1) The probe di-eosin glutathione disulfide, di-eosin-GSSG, was prepared as previously described in Raturi, A., Vacratsis, P. O., Seslija, D., Lee, L. & Mutus, B., Biochem J 391, 351-357 (2005). Reductase activity of purified thiol isomerases and PDI domains was monitored in a 96-well fluorescence plate format. PDI, AGHA-PDI, ERpS, ERp57, ERp72 and PDI domains were assayed at 50 nM in the presence or absence of the indicated small molecules, peptides or cathepsin G. The assay included 100 mM potassium phosphate (pH 7.4) containing 2 mM EDTA, 5 μM DTT and 150 nM of the di-eosin GSSG probe. The increase in fluorescence was determined for 20 minutes by excitation at 520 nm and emission at 550 nm in a Synergy Biotek 4. The reduction of 150 nM di-eosin-GSSG by 5 μM DTT in the presence or absence of mentioned small molecules, peptides or proteins served as a negative control."}, "ERp72": {"target": "T2, ERp72 (Homo sapiens, UniProt P13667)", "T2 construct": "recombinant His-tagged full-length ERp5, ERp72 and PDI domain fragments; His; made in house; host or cells: Escherichia coli Origami B (DE3), pET-15b", "T2 sequence (P13667 21-645)": "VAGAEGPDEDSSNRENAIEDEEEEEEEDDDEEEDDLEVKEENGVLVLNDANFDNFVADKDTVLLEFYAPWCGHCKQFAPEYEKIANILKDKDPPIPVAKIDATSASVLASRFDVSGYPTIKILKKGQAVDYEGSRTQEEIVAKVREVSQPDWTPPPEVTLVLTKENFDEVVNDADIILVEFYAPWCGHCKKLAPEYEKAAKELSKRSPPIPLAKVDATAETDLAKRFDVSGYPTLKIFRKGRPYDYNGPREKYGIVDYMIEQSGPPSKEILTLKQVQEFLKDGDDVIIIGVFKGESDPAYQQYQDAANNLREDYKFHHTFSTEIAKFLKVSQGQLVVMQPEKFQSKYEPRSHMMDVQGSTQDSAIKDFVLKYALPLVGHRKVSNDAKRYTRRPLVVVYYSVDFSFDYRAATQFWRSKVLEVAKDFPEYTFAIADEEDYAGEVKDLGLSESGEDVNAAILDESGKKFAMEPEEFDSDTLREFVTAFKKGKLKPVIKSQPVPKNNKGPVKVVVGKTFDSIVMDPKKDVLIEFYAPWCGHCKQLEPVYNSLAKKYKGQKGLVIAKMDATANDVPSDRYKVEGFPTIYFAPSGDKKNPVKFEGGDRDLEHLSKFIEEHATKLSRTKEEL", "test": "Di-eosin-GSSG disulfide reductase assay", "experimental": "as §1"}, "ERp57": {"target": "T3, ERp57 (Homo sapiens, UniProt P30101)", "T3 construct": "FLAG; made in house; host or cells: Escherichia coli Origami B (DE3), pET-15b", "T3 sequence (P30101 25-505)": "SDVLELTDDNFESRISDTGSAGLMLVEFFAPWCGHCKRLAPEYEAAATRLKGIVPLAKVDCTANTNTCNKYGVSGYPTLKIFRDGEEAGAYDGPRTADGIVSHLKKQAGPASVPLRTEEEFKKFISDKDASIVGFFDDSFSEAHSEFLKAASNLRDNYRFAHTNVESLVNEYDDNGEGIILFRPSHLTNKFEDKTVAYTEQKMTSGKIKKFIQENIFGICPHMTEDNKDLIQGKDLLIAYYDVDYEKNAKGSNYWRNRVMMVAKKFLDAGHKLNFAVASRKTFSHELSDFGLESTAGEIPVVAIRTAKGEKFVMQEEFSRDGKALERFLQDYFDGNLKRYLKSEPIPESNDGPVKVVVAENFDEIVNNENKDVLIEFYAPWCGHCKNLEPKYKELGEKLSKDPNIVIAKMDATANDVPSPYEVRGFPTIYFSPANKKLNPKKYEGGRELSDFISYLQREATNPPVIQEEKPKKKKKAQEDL", "test": "Di-eosin-GSSG disulfide reductase assay", "experimental": "as §1"}, "ERp5": {"target": "T4, ERp5 (Homo sapiens, UniProt Q15084)", "T4 construct": "recombinant His-tagged full-length ERp5, ERp72 and PDI domain fragments; His; made in house; host or cells: Escherichia coli Origami B (DE3), pET-15b", "T4 sequence (Q15084 20-440)": "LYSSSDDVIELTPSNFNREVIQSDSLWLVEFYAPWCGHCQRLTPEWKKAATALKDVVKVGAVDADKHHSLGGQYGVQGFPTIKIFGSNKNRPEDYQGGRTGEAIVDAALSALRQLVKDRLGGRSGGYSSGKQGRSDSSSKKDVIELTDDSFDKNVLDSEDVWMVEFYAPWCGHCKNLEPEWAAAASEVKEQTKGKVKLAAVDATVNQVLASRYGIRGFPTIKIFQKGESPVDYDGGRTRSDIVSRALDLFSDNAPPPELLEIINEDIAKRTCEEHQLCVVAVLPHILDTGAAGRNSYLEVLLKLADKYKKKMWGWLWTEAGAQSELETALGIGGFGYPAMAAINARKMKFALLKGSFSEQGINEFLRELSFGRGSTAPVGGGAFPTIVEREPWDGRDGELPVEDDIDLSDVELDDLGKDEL", "test": "Di-eosin-GSSG disulfide reductase assay", "experimental": "as §1"}}, "data": [{"smiles": "CCOC(=O)c1c(CNCCN(CC)CC)n(-c2ccccc2)c2cc(Br)c(O)cc12", "note": "[bepristat 2a]", "values": [{"measurement": "augmentation of activity of catalytically inactive PDI (AGHA)", "setting": "[1]", "result": "fails to augment activity"}, {"measurement": "cleavage of di-eosin-GSSG by ERp72 (catalytic activity)", "setting": "ERp72", "result": "did not augment activity"}, {"measurement": "cleavage of di-eosin-GSSG by ERp57 (catalytic activity)", "setting": "ERp57", "result": "did not augment activity"}, {"measurement": "cleavage of di-eosin-GSSG by ERp5 (catalytic activity)", "setting": "ERp5", "result": "did not augment activity"}]}]}
